Measured values published in US6660891B2, “Methods for the production of D-chiro-inositol and the use of D-chiro inositol obtained therefrom” (Insmed Incorporated, priority 2000, dated 2003).

How the values were obtained:
[1] = Stability in concentrated aqueous acid (HCl); type: physicochemical; details: about 5 N to 12 N HCl, about 65° C. to about 110° C.; conditions that destroy other sugars and demethylate D-Pinitol
From the text: Therefore this single reaction provides D-chiro-inositol that is substantially free of other contaminating carbohydrates, thus eliminating the need for subsequent purification techniques.
One aspect of the invention involves the conversion of […] a concentrated acid. […] Thus a crude D-chiro-inositol composition comprising one or more components where at least 10% (w/w) of the mass is a D-chiro-inositol moiety is subject to concentrated acid in a solution of about 5 N to 12 N HCl at a temperature in the range of about 65° C. to about 110° C. for a period of time.

[2] = test system: ovulation in women afflicted with polycystic ovary syndrome; details: 44 women with PCOS; DCI 1200 mg/day for 6-8 weeks; placebo 27%; cited from earlier work
[3] = test system: glucose tolerance and insulin secretion; details: subjects with impaired glucose tolerance; DCI 1200 mg/day for 2 weeks; restored to normal levels; cited from earlier work
[4] = test system: insulin sensitivity; details: oral supplementation, insulin resistant individuals; cited from earlier work

OC1C(O)C(O)C(O)C(O)C1O [DCI, D-chiro-inositol]
stability under acidic conditions [1]: stable
ovulation, proportion of patients [2]: 86%
glucose tolerance [3]: restored
insulin secretion [3]: restored
insulin sensitivity [4]: improves insulin sensitivity
